The results in this text go back to patent US10934274B2, “Quinoline derivatives as TAM RTK inhibitors” (Qurient Co., Ltd., priority 2015, dated 2021).

Experiment [1] deals with T1, Axl (Homo sapiens, UniProt P30530).
T1 construct: purchased Life Technologies
T1 sequence (P30530 26-894): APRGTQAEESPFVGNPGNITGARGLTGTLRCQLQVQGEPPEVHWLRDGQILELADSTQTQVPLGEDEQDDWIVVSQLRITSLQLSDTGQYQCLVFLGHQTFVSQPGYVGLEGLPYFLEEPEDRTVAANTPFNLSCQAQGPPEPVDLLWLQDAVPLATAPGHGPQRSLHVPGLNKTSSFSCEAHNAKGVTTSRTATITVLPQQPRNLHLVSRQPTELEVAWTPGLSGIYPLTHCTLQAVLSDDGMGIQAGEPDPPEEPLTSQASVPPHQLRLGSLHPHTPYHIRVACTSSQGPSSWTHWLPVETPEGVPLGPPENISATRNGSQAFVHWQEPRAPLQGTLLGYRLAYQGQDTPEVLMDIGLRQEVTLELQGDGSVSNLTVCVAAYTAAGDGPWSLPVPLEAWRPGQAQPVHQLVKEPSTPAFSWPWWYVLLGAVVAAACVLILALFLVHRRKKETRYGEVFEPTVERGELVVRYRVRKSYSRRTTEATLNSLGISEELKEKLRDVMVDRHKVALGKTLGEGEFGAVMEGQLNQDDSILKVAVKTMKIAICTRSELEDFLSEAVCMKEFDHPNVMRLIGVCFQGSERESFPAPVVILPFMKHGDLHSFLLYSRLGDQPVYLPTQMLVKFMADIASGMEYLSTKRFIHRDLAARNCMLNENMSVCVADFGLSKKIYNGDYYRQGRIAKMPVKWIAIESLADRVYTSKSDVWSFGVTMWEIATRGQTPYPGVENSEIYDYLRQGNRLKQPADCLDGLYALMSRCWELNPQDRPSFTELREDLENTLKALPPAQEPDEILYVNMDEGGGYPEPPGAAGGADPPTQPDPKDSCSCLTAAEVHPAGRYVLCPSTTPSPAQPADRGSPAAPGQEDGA
Nature of the experiment: LanthaScreen Eu kinase binding assay, Axl. The conditions noted are these: Tracer 236.

The target of experiment [2] is T2, Mer (Homo sapiens, UniProt Q12866).
T2 construct: purchased Life Technologies
T2 sequence (Q12866 21-999): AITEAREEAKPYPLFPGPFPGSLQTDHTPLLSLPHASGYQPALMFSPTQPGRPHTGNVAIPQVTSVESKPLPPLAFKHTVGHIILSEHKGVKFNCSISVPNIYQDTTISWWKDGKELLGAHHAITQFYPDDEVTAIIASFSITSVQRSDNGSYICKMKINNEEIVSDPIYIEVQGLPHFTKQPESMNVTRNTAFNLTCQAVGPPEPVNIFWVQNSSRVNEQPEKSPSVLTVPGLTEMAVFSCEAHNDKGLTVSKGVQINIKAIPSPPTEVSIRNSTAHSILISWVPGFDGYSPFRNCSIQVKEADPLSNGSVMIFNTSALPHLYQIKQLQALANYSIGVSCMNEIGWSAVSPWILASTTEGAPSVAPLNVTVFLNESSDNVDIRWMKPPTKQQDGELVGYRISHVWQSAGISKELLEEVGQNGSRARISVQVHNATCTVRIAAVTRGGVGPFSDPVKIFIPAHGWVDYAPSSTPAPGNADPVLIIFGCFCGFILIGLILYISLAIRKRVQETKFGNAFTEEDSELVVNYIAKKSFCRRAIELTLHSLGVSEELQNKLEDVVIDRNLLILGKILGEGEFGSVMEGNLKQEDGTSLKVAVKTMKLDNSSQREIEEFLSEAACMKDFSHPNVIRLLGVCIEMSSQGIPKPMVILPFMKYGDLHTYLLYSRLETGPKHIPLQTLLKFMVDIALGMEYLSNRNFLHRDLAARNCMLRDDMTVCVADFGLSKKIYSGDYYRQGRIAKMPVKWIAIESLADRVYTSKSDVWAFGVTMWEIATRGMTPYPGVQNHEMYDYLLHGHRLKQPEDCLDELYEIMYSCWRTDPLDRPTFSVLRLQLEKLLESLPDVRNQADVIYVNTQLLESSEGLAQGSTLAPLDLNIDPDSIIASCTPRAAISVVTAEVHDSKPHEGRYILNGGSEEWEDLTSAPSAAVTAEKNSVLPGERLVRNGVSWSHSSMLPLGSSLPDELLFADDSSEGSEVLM
Kind of experiment: LanthaScreen Eu kinase binding assay, Mer. The conditions noted are these: Tracer 236.

`CCOc1cn(-c2ccc(N)nc2)nc1C(=O)Nc1ccc(Oc2ccnc3cc(OC)c(OC)cc23)cn1` [Compound 6]: the Kd in experiment [1] and in experiment [2] was below 100 nM throughout.
For the molecule `CCOc1cn(-c2ccnc(O)c2)nc1C(=O)Nc1ccc(Oc2ccnc3cc(OC)c(OC)cc23)cn1` [Compound 7], the Kd is at least 1000 nM in experiment [1] and below 100 nM in experiment [2].
Consider `CCOc1cn(-c2cn[nH]c2)nc1C(=O)Nc1ccc(Oc2ccnc3cc(OC)c(OC)cc23)cn1` [Compound 8], for which the Kd in experiment [1] and in experiment [2] was below 100 nM throughout.
For the molecule `CCOc1cn(-c2cnc(N)nc2)nc1C(=O)Nc1ccc(Oc2ccnc3cc(OC)c(OC)cc23)cn1` [Compound 10], the Kd in experiment [1] and in experiment [2] was below 100 nM in each case.
`CCOc1cn(-c2cncn2C)nc1C(=O)Nc1ccc(Oc2ccnc3cc(OC)c(OC)cc23)cn1` [Compound 11]: the Kd in experiment [1] and in experiment [2] was below 100 nM throughout.
In the case of `CCOc1cn(-c2nccs2)nc1C(=O)Nc1ccc(Oc2ccnc3cc(OC)c(OC)cc23)cn1` [Compound 12], the Kd in experiment [1] and in experiment [2] was below 100 nM each time.
In the case of `CCOc1cn(-c2cscn2)nc1C(=O)Nc1ccc(Oc2ccnc3cc(OC)c(OC)cc23)cn1` [Compound 13], the Kd in experiment [1] and in experiment [2] was below 100 nM each time.
`CCOc1cn(-c2cncs2)nc1C(=O)Nc1ccc(Oc2ccnc3cc(OC)c(OC)cc23)cn1` [Compound 14]: the equilibrium dissociation constant (Kd) in experiment [1] and in experiment [2] was below 100 nM throughout.
As to `CCOc1cnn(-c2cncs2)c1C(=O)Nc1ccc(Oc2ccnc3cc(OC)c(OC)cc23)cn1` [Compound 16], the Kd in experiment [1] and in experiment [2] was below 100 nM in each case.
Regarding `CCOc1cn(-c2cnc(CO)nc2)nc1C(=O)Nc1ccc(Oc2ccnc3cc(OC)c(OC)cc23)cn1` [Compound 96], the Kd in experiment [1] and in experiment [2] was below 100 nM in each case.
For the molecule `CCOc1cn(-c2ccc(F)cc2C)nc1C(=O)Nc1ccc(Oc2ccnc3cc(OC)c(OC)cc23)nn1` [Compound 97], the Kd in experiment [1] and in experiment [2] was below 100 nM each time.
For `CCOc1cn(-c2ccc(C(F)(F)F)cc2C)nc1C(=O)Nc1ccc(Oc2ccnc3cc(OC)c(OC)cc23)cn1` [Compound 99], the Kd in experiment [1] and in experiment [2] was below 100 nM each time.
`CCOc1cn(-c2ccc(C)cc2F)nc1C(=O)Nc1ccc(Oc2ccnc3cc(OC)c(OC)cc23)cn1` [Compound 100]: the Kd in experiment [1] and in experiment [2] was below 100 nM each time.
Consider `CCOc1cn(-c2ccc(Cl)cc2C(F)(F)F)nc1C(=O)Nc1ccc(Oc2ccnc3cc(OC)c(OC)cc23)cn1` [Compound 101], for which the Kd in experiment [1] and in experiment [2] was below 100 nM each time.
In the case of `CCOc1cnn(-c2ccc(C(F)(F)F)cc2C)c1C(=O)Nc1ccc(Oc2ccnc3cc(OC)c(OC)cc23)cn1` [Compound 102], the Kd in experiment [1] was below 100 nM; in experiment [2] it was 100 to 1000 nM.
Take `CCOc1cn(-c2ccc(F)cc2C(F)(F)F)nc1C(=O)Nc1ccc(Oc2ccnc3cc(OC)c(OC)cc23)cn1` [Compound 104]: the dissociation constant Kd in experiment [1] and in experiment [2] was below 100 nM each time.
Consider `CCOc1cn(-c2ccc(C(F)(F)F)cc2C(F)(F)F)nc1C(=O)Nc1ccc(Oc2ccnc3cc(OC)c(OC)cc23)cn1` [Compound 105], for which the Kd in experiment [1] and in experiment [2] was below 100 nM throughout.
Take `CCOc1cn(-c2ccc(Cl)cc2F)nc1C(=O)Nc1ccc(Oc2ccnc3cc(OC)c(OC)cc23)cn1` [Compound 106]: the Kd in experiment [1] and in experiment [2] was below 100 nM throughout.
Turning to `CCOc1cn(-c2ccc(F)cc2F)nc1C(=O)Nc1ccc(Oc2ccnc3cc(OC)c(OC)cc23)cn1` [Compound 107], the Kd in experiment [1] and in experiment [2] was below 100 nM in each case.
As for `CCOc1cn(-c2ccc(Cl)cc2Cl)nc1C(=O)Nc1ccc(Oc2ccnc3cc(OC)c(OC)cc23)cn1` [Compound 108], the Kd in experiment [1] and in experiment [2] was below 100 nM each time.
On to `CCOc1cnn(-c2ccc(C(F)(F)F)cc2C(F)(F)F)c1C(=O)Nc1ccc(Oc2ccnc3cc(OC)c(OC)cc23)cn1` [Compound 110], for which the Kd is below 100 nM in experiment [1] and 100 to 1000 nM in experiment [2].
The like results for `CCOc1cn(-c2ccc(Cl)cc2CC)nc1C(=O)Nc1ccc(Oc2ccnc3cc(OC)c(OC)cc23)cn1` [Compound 111] were, in that order, below 100 nM and below 100 nM.
For `CCOc1cn(-c2ccc(F)cc2CC)nc1C(=O)Nc1ccc(Oc2ccnc3cc(OC)c(OC)cc23)cn1` [Compound 112], in that order: below 100 nM and below 100 nM.
`CCOc1cn(-c2ccc(OC(F)(F)F)cc2C)nc1C(=O)Nc1ccc(Oc2ccnc3cc(OC)c(OC)cc23)cn1` [Compound 113]: the Kd in experiment [1] and in experiment [2] was below 100 nM each time.
Turning to `CCOc1cn(-c2ccc(C(F)(F)F)cc2F)nc1C(=O)Nc1ccc(Oc2ccnc3cc(OC)c(OC)cc23)cn1` [Compound 114], the Kd in experiment [1] and in experiment [2] was below 100 nM in each case.
For the molecule `CCOc1cn(-c2ccc(OC(F)(F)F)cc2Cl)nc1C(=O)Nc1ccc(Oc2ccnc3cc(OC)c(OC)cc23)cn1` [Compound 115], the Kd in experiment [1] and in experiment [2] was below 100 nM in each case.
Turning to `CCOc1cn(-c2ccc(C(C)C)cc2)nc1C(=O)Nc1ccc(Oc2ccnc3cc(OC)c(OC)cc23)cn1` [Compound 116], the Kd in experiment [1] and in experiment [2] was below 100 nM in each case.
Regarding `CCOc1cn(-c2c(C)cc(C)cc2C)nc1C(=O)Nc1ccc(Oc2ccnc3cc(OC)c(OC)cc23)cn1` [Compound 117], the Kd in experiment [1] and in experiment [2] was below 100 nM each time.
In the case of `CCOc1cn(-c2ccc(OC(F)(F)F)cc2F)nc1C(=O)Nc1ccc(Oc2ccnc3cc(OC)c(OC)cc23)cn1` [Compound 120], the Kd in experiment [1] and in experiment [2] was below 100 nM in each case.
As for `CCOc1cn(-c2ccc(F)c(CN(C)C)c2)nc1C(=O)Nc1ccc(Oc2ccnc3cc(OC)c(OC)cc23)cn1` [Compound 124], the dissociation constant (Kd) in experiment [1] and in experiment [2] was below 100 nM each time.
On to `CCOc1cn(-c2ccc(F)cc2C(C)C)nc1C(=O)Nc1ccc(Oc2ccnc3cc(OC)c(OC)cc23)cn1` [Compound 125], for which the Kd in experiment [1] and in experiment [2] was below 100 nM each time.
As for `CCOc1cn(-c2ccc(Cl)c(CN(C)C)c2)nc1C(=O)Nc1ccc(Oc2ccnc3cc(OC)c(OC)cc23)cn1` [Compound 126], the Kd in experiment [1] and in experiment [2] was below 100 nM throughout.
`CCOc1cn(-c2ccc(C(C)C)cc2F)nc1C(=O)Nc1ccc(Oc2ccnc3cc(OC)c(OC)cc23)cn1` [Compound 127]: the Kd in experiment [1] and in experiment [2] was below 100 nM each time.
In the case of `CCOc1cn(-c2ccc(F)c(CO)c2)nc1C(=O)Nc1ccc(Oc2ccnc3cc(OC)c(OC)cc23)cn1` [Compound 128], the Kd in experiment [1] and in experiment [2] was below 100 nM in each case.
Regarding `CCOc1cn(-c2ccc(Cl)c(C(=O)N(C)C)c2)nc1C(=O)Nc1ccc(Oc2ccnc3cc(OC)c(OC)cc23)cn1` [Compound 129], the Kd in experiment [1] and in experiment [2] was below 100 nM in each case.
Consider `CCOc1cnn(-c2ccc(Cl)c(CN(C)C)c2)c1C(=O)Nc1ccc(Oc2ccnc3cc(OC)c(OC)cc23)cn1` [Compound 130], for which the Kd in experiment [1] and in experiment [2] was below 100 nM each time.
`CCOc1cn(-c2c(C)ccnc2C)nc1C(=O)Nc1ccc(Oc2ccnc3cc(OC)c(OC)cc23)cn1` [Compound 132]: the Kd in experiment [1] and in experiment [2] was below 100 nM throughout.
